Data from ChEMBL document CHEMBL4811298, “Discovery of novel class of histone deacetylase inhibitors as potential anticancer agents” (Bioorg Med Chem, 2021).
Calls of active or inactive are those of the source. The calls are words filed in the database; no cut-off is given here.

Legend:
[1] = organism: Homo sapiens; test: (§1) Selectivity ratio of IC50 for inhibition of C-terminal His-tagged human recombinant full length HDAC3 (1 to 428 residues)/N-terminal GST-tagged human recombinant NCOR2 (395 to 489 residues) expressed in baculovirus-infected Sf9 cells to IC50 for inhibition of C-terminal 6XHis-tagged human recombinant full length HDAC2 (1 to 488 residues) expressed in baculovirus-infected Sf9 cells
[2] = Downregulation of HDAC3 gene expression in human MCF7 cells at 3 uM incubated for 24 hrs by whole transcriptome analysis relative to control; format: functional
[3] = organism: Homo sapiens; test: as §1, with “FLAG/His-tagged” for “6XHis-tagged”, “HDAC1” for “full length HDAC2”, “482” for “488”
[4] = target: Histone deacetylase 9 (Homo sapiens, UniProt Q9UKV0); test: Inhibition of C-terminal His-tagged human HDAC9 (604 to 1066 residues) expressed in baculovirus-infected Sf9 cells assessed as reduction in 7-amino-4-methylcoumarin release measured every 5 mins by fluorescence based analysis
[5] = target: Histone deacetylase 4 (Homo sapiens, UniProt P56524); test: Inhibition of N-terminal GST-tagged/C-terminal His-tagged human recombinant HDAC4 (627 to 1084 residues) expressed in baculovirus-infected Sf9 cells assessed as reduction in 7-amino-4-methylcoumarin release measured every 5 mins by fluorescence based analysis
[6] = target: Histone deacetylase 3/Nuclear receptor corepressor 2 (HDAC3/NCoR2) (Homo sapiens, UniProt O15379); test: Inhibition of C-terminal His-tagged human recombinant full length HDAC3 (1 to 428 residues)/N-terminal GST-tagged human recombinant NCOR2 (395 to 489 residues) expressed in baculovirus-infected Sf9 cells assessed as reduction in 7-amino-4-methylcoumarin release using fluorogenic HDAC substrate 3 measured every 5 mins by fluorescence based analysis
[7] = test system: MCF7; test: Induction of cell cycle arrest in human MCF7 cells assessed downregulation of CDK1 gene expression at 3 uM incubated for 24 hrs by whole transcriptome analysis; format: functional, cell-based
[8] = organism: Homo sapiens; test: Selectivity ratio of IC50 for inhibition of C-terminal His-tagged human HDAC9 (604 to 1066 residues) expressed in baculovirus-infected Sf9 cells to IC50 for inhibition of C-terminal 6XHis-tagged human recombinant full length HDAC2 (1 to 488 residues) expressed in baculovirus-infected Sf9 cells
[9] = Metabolic stability of the compound in CD-1 mouse liver microsomes assessed as parent compound remaining at 1 uM measured after 60 mins in absence of NADPH by LC-MS/MS analysis; format: ADME, Microsome; settings: read-out: Stabilty
[10] = test system: MCF7; test: Induction of apoptosis in human MCF7 cells assessed as downregulation of c-Myc protein expression at 1 to 3 uM measured after 48 hrs western blot analysis; format: functional, cell-based; settings: dose 1-3 µM
[11] = Half life in CD-1 mouse liver microsomes at 1 uM measured after 60 mins in presence of NADPH by LC-MS/MS analysis; format: ADME, Microsome
[12] = target: Histone deacetylase 2 (Homo sapiens, UniProt Q92769); format: cell-based, Sf9
[13] = target: Cytochrome P450 3A4 (Homo sapiens, UniProt P08684); test: Inhibition of human CYP3A4 expressed in insect supersomes assessed as reduction in […] formation using midazolam as substrate measured after 30 mins in presence of NADPH by LC-MS/MS analysis; format: ADME
[14] = target: Histone deacetylase 5 (Homo sapiens, UniProt Q9UQL6); test: Inhibition of N-terminal GST-tagged human recombinant full length HDAC5 expressed in baculovirus-infected Sf9 cells assessed as reduction in 7-amino-4-methylcoumarin release measured every 5 mins by fluorescence based analysis
[15] = test system: MCF7; test: Induction of apoptosis in human MCF7 cells assessed as increase in caspase 3/7 activity at 1 to 3 uM measured after 48 hrs by ELISA; format: functional, cell-based; settings: dose 1-3 µM
[16] = organism: Homo sapiens; test: Selectivity ratio of IC50 for inhibition of N-terminal GST-tagged/C-terminal His-tagged human recombinant HDAC4 (627 to 1084 residues) expressed in baculovirus-infected Sf9 cells to IC50 for inhibition of C-terminal FLAG/His-tagged human recombinant HDAC1 (1 to 482 residues) expressed in baculovirus-infected Sf9 cells
[17] = organism: Homo sapiens; test: Selectivity ratio of IC50 for inhibition of N-terminal GST-tagged human HDAC7 (518 to end residues) expressed in baculovirus-infected Sf9 cells to IC50 for inhibition of C-terminal FLAG/His-tagged human recombinant HDAC1 (1 to 482 residues) expressed in baculovirus-infected Sf9 cells
[18] = test system: MCF7; test: Downregulation of SIRT2 gene expression in human MCF7 cells at 3 uM incubated for 24 hrs by whole transcriptome analysis; format: functional, cell-based
[19] = test system: MCF7; test: Induction of cell cycle arrest in human MCF7 cells assessed downregulation of E2F1 gene expression at 3 uM incubated for 24 hrs by whole transcriptome analysis; format: functional, cell-based
[20] = target: T1, Histone deacetylase 7 (Homo sapiens, UniProt Q8WUI4); test: Inhibition of N-terminal GST-tagged human HDAC7 (518 to end residues) expressed in baculovirus-infected Sf9 cells assessed as reduction in 7-amino-4-methylcoumarin release measured every 5 mins by fluorescence based analysis
T1 sequence (Q8WUI4 whole entry): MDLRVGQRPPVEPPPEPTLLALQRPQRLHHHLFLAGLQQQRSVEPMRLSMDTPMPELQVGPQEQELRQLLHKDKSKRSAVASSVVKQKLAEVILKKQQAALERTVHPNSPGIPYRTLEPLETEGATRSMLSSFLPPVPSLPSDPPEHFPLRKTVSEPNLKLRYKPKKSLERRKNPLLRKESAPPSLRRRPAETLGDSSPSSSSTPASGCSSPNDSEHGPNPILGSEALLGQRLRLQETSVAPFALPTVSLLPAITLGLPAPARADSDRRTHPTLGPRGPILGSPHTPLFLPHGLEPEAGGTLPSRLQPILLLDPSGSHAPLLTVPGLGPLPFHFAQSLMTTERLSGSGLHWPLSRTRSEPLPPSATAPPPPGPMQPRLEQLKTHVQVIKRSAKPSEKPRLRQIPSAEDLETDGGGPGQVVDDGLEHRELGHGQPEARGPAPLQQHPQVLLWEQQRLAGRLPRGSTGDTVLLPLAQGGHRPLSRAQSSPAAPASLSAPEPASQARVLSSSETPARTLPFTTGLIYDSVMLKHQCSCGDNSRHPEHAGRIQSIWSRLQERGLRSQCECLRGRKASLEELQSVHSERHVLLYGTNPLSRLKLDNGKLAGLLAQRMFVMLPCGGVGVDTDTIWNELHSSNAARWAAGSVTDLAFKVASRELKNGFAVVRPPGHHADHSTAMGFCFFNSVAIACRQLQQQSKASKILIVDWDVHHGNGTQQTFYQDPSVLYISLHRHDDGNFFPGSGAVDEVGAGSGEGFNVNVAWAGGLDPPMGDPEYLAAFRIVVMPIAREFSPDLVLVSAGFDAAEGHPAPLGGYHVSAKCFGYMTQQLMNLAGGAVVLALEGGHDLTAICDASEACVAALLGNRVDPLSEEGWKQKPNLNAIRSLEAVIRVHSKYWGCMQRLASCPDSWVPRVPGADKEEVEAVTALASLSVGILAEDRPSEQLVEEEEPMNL

[21] = test system: MCF7; test: Downregulation of SIRT4 gene expression in human MCF7 cells at 3 uM incubated for 24 hrs by whole transcriptome analysis; format: functional, cell-based

Histone deacetylase 3/Nuclear receptor corepressor 2 (HDAC3/NCoR2), sequence (O15379 whole entry, the tested form may be a part): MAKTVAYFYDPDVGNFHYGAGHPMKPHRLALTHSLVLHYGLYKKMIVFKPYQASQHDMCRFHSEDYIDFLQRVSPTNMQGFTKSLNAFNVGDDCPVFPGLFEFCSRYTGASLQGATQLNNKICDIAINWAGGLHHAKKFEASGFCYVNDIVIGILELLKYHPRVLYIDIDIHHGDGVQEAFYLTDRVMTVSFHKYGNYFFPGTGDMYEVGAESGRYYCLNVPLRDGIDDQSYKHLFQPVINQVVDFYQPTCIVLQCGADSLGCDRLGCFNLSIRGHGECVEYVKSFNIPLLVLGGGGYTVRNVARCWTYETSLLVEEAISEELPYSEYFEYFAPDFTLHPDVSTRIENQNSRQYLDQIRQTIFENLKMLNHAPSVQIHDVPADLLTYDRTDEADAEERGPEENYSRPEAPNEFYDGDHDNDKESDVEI
Histone deacetylase 3/Nuclear receptor corepressor 2 (HDAC3/NCoR2), sequence (Q9Y618 whole entry, further chain, the tested form may be a part): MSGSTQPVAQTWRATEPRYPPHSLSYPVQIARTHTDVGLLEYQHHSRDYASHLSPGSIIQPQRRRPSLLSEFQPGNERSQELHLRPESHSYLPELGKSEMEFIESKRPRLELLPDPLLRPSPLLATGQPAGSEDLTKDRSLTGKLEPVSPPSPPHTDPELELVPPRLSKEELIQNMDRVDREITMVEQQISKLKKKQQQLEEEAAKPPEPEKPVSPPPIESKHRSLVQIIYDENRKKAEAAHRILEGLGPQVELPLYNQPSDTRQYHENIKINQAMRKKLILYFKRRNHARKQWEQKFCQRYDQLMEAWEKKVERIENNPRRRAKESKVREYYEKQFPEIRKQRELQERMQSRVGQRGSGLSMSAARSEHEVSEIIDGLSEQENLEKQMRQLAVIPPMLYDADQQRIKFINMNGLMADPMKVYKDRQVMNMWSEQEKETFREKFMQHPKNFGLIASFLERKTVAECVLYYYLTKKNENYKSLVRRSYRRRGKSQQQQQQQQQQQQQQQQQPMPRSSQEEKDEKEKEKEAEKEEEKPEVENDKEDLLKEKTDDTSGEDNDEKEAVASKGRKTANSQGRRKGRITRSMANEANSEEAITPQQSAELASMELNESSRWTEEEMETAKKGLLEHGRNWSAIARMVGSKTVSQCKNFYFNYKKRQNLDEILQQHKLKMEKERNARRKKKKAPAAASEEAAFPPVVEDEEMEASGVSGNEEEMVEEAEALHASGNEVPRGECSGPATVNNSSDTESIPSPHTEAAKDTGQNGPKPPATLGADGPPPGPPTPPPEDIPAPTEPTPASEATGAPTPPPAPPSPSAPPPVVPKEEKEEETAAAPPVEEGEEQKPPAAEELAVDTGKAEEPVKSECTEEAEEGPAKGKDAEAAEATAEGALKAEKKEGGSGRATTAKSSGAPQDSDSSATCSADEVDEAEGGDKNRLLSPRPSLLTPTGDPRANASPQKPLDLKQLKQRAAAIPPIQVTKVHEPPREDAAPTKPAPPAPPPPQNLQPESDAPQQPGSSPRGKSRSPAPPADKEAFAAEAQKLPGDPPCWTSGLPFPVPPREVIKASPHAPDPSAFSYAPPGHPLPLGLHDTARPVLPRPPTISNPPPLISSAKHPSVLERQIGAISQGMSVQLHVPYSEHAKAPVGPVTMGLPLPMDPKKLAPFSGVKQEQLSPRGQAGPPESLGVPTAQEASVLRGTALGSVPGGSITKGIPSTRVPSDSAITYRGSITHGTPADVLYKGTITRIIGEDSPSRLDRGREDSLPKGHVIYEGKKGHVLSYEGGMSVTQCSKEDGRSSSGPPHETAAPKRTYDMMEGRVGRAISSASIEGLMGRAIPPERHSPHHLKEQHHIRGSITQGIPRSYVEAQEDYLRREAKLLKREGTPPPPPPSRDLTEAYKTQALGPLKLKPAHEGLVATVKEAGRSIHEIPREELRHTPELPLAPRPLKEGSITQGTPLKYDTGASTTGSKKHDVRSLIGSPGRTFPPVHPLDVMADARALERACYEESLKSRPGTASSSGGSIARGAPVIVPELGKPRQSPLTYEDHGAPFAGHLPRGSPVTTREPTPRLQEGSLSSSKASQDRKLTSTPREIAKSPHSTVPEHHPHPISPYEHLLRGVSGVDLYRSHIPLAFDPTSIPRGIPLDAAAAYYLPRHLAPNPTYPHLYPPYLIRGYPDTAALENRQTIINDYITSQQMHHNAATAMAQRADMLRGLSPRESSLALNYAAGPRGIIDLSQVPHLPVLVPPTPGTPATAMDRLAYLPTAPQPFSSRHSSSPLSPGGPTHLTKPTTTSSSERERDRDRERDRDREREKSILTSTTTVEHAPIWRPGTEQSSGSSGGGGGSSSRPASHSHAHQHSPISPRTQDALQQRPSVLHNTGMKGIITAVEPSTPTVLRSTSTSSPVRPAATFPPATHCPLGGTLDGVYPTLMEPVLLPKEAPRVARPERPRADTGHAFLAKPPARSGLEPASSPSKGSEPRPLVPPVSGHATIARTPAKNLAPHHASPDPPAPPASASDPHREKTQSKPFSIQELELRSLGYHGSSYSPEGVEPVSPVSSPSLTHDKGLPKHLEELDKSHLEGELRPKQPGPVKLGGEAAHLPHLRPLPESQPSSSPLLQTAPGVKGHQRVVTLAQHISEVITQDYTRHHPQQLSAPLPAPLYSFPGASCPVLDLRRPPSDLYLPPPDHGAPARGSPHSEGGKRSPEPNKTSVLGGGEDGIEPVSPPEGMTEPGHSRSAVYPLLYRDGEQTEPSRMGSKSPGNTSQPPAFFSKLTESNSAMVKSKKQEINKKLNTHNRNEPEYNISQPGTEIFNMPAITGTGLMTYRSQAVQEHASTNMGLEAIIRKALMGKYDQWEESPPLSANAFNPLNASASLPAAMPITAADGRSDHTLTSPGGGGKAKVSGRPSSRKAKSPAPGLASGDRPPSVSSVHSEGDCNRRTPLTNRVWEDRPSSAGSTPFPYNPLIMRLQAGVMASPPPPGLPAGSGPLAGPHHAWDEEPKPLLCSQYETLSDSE
Histone deacetylase 4, sequence (P56524 whole entry, the tested form may be a part): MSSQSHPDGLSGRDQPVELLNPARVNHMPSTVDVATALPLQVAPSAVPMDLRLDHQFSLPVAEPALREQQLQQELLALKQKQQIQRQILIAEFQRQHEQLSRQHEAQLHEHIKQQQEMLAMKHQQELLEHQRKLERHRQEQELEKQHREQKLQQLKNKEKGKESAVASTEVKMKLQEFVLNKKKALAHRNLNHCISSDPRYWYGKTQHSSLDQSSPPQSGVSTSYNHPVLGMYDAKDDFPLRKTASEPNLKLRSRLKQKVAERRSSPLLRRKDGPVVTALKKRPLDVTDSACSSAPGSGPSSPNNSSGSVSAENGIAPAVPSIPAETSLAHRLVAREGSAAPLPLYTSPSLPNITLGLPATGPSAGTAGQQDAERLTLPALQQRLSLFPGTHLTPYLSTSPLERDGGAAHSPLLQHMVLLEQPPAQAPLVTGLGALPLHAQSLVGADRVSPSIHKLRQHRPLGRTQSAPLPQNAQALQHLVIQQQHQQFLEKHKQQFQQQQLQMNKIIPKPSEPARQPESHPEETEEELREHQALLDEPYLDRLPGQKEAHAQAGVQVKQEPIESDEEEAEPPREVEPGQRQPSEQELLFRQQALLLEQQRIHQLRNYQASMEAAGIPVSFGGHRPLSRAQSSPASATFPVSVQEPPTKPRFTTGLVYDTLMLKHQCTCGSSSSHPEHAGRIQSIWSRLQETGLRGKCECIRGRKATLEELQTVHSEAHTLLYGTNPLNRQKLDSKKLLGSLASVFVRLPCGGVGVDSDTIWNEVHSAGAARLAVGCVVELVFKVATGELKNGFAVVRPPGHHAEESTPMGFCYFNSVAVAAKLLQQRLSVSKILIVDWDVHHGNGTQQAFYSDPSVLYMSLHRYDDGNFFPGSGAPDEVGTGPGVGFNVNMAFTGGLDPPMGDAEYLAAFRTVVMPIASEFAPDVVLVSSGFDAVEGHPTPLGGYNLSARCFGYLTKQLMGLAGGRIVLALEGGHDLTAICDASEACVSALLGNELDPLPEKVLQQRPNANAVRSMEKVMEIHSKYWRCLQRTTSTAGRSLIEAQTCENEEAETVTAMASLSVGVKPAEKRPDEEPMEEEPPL
Histone deacetylase 9, sequence (Q9UKV0 whole entry, the tested form may be a part): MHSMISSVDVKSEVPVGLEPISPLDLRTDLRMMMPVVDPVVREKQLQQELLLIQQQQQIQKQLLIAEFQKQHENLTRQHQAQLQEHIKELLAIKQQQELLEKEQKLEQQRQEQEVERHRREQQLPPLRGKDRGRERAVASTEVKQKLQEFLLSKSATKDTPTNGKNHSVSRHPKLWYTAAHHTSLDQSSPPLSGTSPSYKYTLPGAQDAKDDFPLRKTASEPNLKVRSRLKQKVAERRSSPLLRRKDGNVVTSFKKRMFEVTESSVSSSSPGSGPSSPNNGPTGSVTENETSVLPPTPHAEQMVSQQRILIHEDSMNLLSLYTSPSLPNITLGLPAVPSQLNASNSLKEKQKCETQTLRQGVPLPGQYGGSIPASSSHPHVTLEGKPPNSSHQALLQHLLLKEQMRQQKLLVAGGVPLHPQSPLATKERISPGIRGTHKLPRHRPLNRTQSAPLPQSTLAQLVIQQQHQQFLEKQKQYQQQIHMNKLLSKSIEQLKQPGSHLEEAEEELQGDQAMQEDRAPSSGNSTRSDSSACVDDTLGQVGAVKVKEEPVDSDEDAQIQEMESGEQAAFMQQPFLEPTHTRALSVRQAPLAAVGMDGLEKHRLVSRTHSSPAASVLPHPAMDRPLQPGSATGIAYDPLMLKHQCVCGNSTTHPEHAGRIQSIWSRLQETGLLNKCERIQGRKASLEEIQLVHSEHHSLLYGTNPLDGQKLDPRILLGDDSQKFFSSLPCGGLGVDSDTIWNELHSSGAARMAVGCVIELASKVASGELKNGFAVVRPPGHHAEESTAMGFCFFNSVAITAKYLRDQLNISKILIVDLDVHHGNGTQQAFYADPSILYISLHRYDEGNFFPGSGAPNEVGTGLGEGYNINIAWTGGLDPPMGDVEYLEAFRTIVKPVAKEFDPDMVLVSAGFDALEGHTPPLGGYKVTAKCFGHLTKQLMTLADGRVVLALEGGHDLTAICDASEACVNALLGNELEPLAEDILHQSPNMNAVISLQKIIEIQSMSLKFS

IC50 [4]: > 10 µM
IC50 [5]: > 10 µM
IC50 [6]: > 10 µM
remaining at 1 h, 1 µM [9]: 94%
half-life at 1 µM [11]: 17.6 min
IC50 [12]: 0.4 µM
IC50 [13]: 0.233 µM
IC50 [14]: > 10 µM
IC50 [20]: > 10 µM
SMILES: N=C(NO)c1ccc2nc(-c3cccc(-c4cn5ccccc5n4)c3)[nH]c2c1
Ratio IC50 [1]: > 44
fold change (FC) [2]: 2.2
Ratio IC50 [3]: > 44
Activity [7]: Active
Ratio IC50 [8]: > 44
Activity [10]: Active
Activity [15]: Active
Ratio IC50 [16]: > 44
Ratio IC50 [17]: > 44
inhibition [18]: Active
Activity [19]: Active
inhibition [21]: Active
